Test results from article PMC6407587, “Inhibition potential of phenolic constituents from the aerial parts of Tetrastigma hemsleyanum against soluble epoxide hydrolase and nitric oxide synthase” (Journal of Enzyme Inhibition and Medicinal Chemistry, 2019).

Columns and labels:
sEH [1] = biological target: T1, sEH (Homo sapiens, UniProt P34913); assay: sEH inhibitory activity, fluorescence assay with PHOME substrate; assay type: biochemical; conditions: for IC50: PHOME substrate, dose-dependent response curve
T1 sequence (P34913 1-555): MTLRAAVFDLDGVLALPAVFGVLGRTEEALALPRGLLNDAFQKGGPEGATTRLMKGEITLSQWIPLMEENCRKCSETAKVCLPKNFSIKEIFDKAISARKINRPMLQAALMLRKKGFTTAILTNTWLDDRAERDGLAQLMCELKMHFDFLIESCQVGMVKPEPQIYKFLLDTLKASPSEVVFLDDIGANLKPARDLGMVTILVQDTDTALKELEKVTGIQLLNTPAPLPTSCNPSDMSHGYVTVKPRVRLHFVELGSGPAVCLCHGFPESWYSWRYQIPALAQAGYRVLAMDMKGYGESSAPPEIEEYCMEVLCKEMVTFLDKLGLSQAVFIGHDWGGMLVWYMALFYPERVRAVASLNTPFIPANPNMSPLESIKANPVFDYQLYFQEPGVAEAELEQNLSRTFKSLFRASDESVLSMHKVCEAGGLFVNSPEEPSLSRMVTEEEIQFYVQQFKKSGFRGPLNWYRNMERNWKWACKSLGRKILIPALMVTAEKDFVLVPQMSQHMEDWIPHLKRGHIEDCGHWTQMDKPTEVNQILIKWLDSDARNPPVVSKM

sEH [2] = biological target: T1, sEH; assay: sEH binding mechanism, Dixon and Lineweaver-Burk plots at different substrate and inhibitor concentrations; assay type: biochemical; conditions: for Type of sEH inhibition: Dixon / Lineweaver-Burk plots
[3] = test system: LPS-induced NO production in macrophage RAW 264.7 cells (iNOS); assay: Inhibition of LPS-induced NO production in RAW 264.7 macrophages (Griess reaction, measure of iNOS activity); assay type: cell-based; conditions: for inhibition at 50 µM: read-out: Inhibition of NO production at 50 µM (%);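 as to all read-outs here: cells pretreated with compound for 2 h, then stimulated 24 h with LPS at 500 ng/ml, supernatant nitrite quantified by absorbance at 550 nm against a nitrite standard curve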
X-box binding protein 1 = test system: X-box binding protein 1; parameters: method as in PMID 26475664; conditions: related to ulcerative colitis; cited from earlier work
[4] = 100 µM compound, tested three times
[5] = Mus musculus, 50 µM compound, LPS-stimulated RAW264.7 cells
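For Cytotoxicity in RAW 264.7 cells (MTT) in this document: viability gauged by mitochondrial reductase turning MTT into formazan, optical density read at 570 nm, with untreated control cells set as 100% viability.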

| Compound | inhibition at 100 µM (sEH [1]; [4]) [%] | IC50 (sEH [1]) [µM] | Type of sEH inhibition (sEH [2]) | Ki (sEH [2]; Dixon plots) [µM] | IC50 ([3]; Mus musculus, RAW264.7, LPS-stimulated RAW264.7 cells, means ± SE, n = 3) [µM] | inhibition at 50 µM [3, 5] [%] | Cytotoxicity in RAW 264.7 cells (MTT) (RAW 264.7 cells) | Inhibition on sEH at 100 µM (%) (sEH [1]; [4]) | Inhibition of NO production at 50 µM (%) ([3]; 50 µM compound, LPS-stimulated RAW264.7 cells) | sEH inhibitory activity (in words) (sEH [1]) | Transcriptional activation of X-box binding protein 1 (X-box binding protein 1) |
| --- | --- | --- | --- | --- | --- | --- | --- | --- | --- | --- | --- |
| O=c1cc(-c2ccc(O)cc2)oc2cc(O)cc(O)c12 [Compound 12, apigenin] | 92.4 ± 2 | 7.2 ± 0.3 | Non-competitive | 24.4 | 12.2 ± 0.1 | 98.9 | did not exhibit significant cytotoxicity | – | – | – | – |
| CC(=O)O[C@H]1[C@H](OC[C@H]2O[C@@H](Oc3c(-c4ccc(O)c(O)c4)oc4cc(O)cc(O)c4c3=O)[C@H](O)[C@@H](O)[C@@H]2O)O[C@@H](C)[C@H](O)[C@H]1O [Compound 17] | – | 9.5 ± 0.1 | non-competitive | – | – | – | did not exhibit significant cytotoxicity | 83.8 ± 3.7 | 29.9 | – | – |
| COc1cc(C2c3cc(O)c(OC)cc3CC(CO)C2COC2OC(C)C(O)C(O)C2O)ccc1O (centres unmarked) [Compound 18] | 52.3 ± 2.6 | – | – | – | – | 32.1 | did not exhibit significant cytotoxicity | – | – | weak inhibitory activity | remarkable transcriptional activation |
